Article PMC5503534, “Stable aneuploid tumors cells are more sensitive to TTK inhibition than chromosomally unstable cell lines” (Oncotarget, 2017)
Like-named read-outs stand apart in the source and are kept apart here.

Key:
[1] = tested on: pediatric T-ALL patient cell samples; assay: Viability assays with T-ALL patient samples; format: cell-based, human; settings: read-out: IC50
Protocol: Written informed consent was obtained from the parents or legal guardians of each T-ALL patient to use excess diagnostic material for research purposes. The study was performed in accordance with the Institutional Review Board of the Erasmus Medical Center Rotterdam (The Netherlands) and in accordance with the Declaration of Helsinki. Leukemic cells were harvested from blood or bone marrow samples and were enriched to ≥ 90% purity.
(§1) Cell proliferation assays were carried out as described using ATPlite 1step™ (Perkin Elmer, Groningen, The Netherlands). Exposure time was 72 or 120 hours as indicated in the Legends to the Figures. Percentage growth was calculated, relative to the growth of unexposed cells, and relative IC50s were fitted using a four-parameter logistics curve (XLfit 5.3, IDBS). For Figure 4A and 7 dose response curves were redrawn in Prism. To compare the inhibitory potency of compounds in proliferation assays with HCT 116 parental and tetraploid clones, pIC50 (−^10logIC50) values were compared in three independent experiments. A two-tailed Student's t-test was performed to determine whether differences in sensitivity (ΔpIC50) were statistically significant. Caspase 3/7 activity of cancer cells was measured using Caspase-Glo 3/7 Assay kit (cat no. G8093, Promega, Madison USA). Viability of T-ALL cell samples was determined using ATPlite and exposure of 72 hours as described previously.

[2] = tested on: DoTc2 4510 cervix carcinoma cell line; assay: Cell proliferation assay (ATPlite), DoTc2 4510; format: cell-based, human; settings: 5 day proliferation assay
Protocol: as §1

[3] = tested on: patient-derived colorectal carcinoma organoids; assay: Organoids drug sensitivity and viability assay; format: cell-based, human
Protocol: The establishment and characterization of the human colon cancer organoids has been described. The organoids were cultured in drops of Geltrex LDEV-Free Reduced Growth Factor Basement Membrane Matrix (Gibco, cat no. A1413202) in DMEM/F12 medium (Thermo), supplemented with 1% (v/v) penicillin/streptomycin (Gibco), 1% Hepes buffer, pH7.5, 1% L-glutamine (Gibco), 1 μg/mL R-spondin (Sigma), 100 ng/mL Noggin (Peprotech), B27 vitamin A-free (Invitrogen, cat no. 12587010), 1 mM n-acetyl cysteine (Sigma), 10 mM nicotinamide (Sigma), 50 ng/mL EGF (BD Biosciences), 500 nM A83-01 (Tocris), 10 μM SB202190 (Sigma), 10 μM Y-27632 (Sigma) and 10 nM Prostaglandin E2 (Cayman). Medium was refreshed every four days and organoids were splitted by treatment with TryPLE Express (Gibco, cat. no. 12604013).
Organoids were dissociated by TryPLE Express treatment and filtered using a 40 μm nylon cell strainer (Falcon). The organoids were re-suspended in Geltrex at a density of 250,000 cells/mL and seeded in the wells of 96-well plates (Corning, cat no. 3903) at 10 μl per well. Compounds were added four days after plating and 72 hours later viability was determined using Cell-Titer Glo 3D Cell Viability Assay (Promega, Madison USA). Experiments were performed in three biological replicates and technical triplicates were averaged per experiment.

[4] = tested on: 66 cancer cell lines (44 cell lines); parameters: method as in earlier work; settings: cited from earlier work
[5] = tested on: LoVo colorectal adenocarcinoma cell line; assay: Cell proliferation assay (ATPlite), LoVo; format: cell-based, human; settings: 5 day proliferation assay
Protocol: as §1

[6] = tested on: caspase 3/7 in HCT 116, HPT1, HPT2 and HPT4 cells; assay: Caspase 3/7 activity assay; format: cell-based, human; settings: 316 nM, three days, parental line and HPT1, HPT2, HPT4
Protocol: as §1

[7] = tested on: A-172 glioblastoma cell line; assay: Cell proliferation assay (ATPlite), A-172; format: cell-based, human; settings: 5 day proliferation assay
Protocol: as §1

[8] = tested on: post-tetraploid HPT2 cells; assay: Cell proliferation assay, post-tetraploid HPT2; format: cell-based, human; settings: HPT2, five days
Protocol: Cancer cell lines and hTERT-RPE1 retinal pigment epithelial cells were purchased from the American Type Culture Collection (ATCC) (Manassas, VA, U.S.A.) from 2011 to 2014 [41] and cultured in ATCC-recommended media. All experiments were carried out within nine passages of the original vials from ATCC who authenticated the cancer cell lines by short tandem repeat analysis. We verified the mutant status of seven frequently mutated cancer genes (i.e., BRAF, CDKN2A, CTNNB1, EGFR, KRAS, PIK3CA and TP53) by full exome or targeted sequencing. Sequencing results were compared to COSMIC version 75 of the Genomics of Drug Sensitivity in Cancer data base and provided additional authentication of the identity of the cell lines. The isolation and characterization of post-tetraploid clones from HCT 116 has been described previously. The mutation status of the CDKN2A, CTNNB1, KRAS and PIK3CA genes were confirmed by sequence analysis in both the HCT 116 parental cell line and post-tetraploid clones. All experiments were carried out within nine passages of the original cell stocks that were transferred from the Max Planck Institute of Biochemistry (Martinsried, Germany) to Netherlands Translational Research Center.
as §1

CCc1cccc(CC)c1NC(=O)c1ccn2c1CCc1cnc(Nc3ccc(N4CCN(C)CC4)cc3OC)nc1-2 [NTRC 0066-0]
IC50 ([1]; all ten T-ALL patient samples, three days): ≥ 5 µM | IC50 ([1]; patient sample 491, three-day assay): 5 µM | IC50 ([1]; patient sample 1033, three-day assay): 5.1 µM | IC50 ([1]; patient sample 1816, three-day assay): 8.1 µM | IC50 ([1]; patient sample 2323, three-day assay): 7.1 µM | IC50 ([1]; patient sample 3594, three-day assay): 4.8 µM | IC50 ([1]; patient sample 3852, three-day assay): 4.9 µM | IC50 ([1]; patient sample 4023, three-day assay): 5.4 µM | IC50 ([1]; patient sample 4126, three-day assay): 9.2 µM | IC50 ([1]; patient sample 4992, three-day assay): 4.9 µM | IC50 ([1]; patient sample 10110, three-day assay): 4.5 µM | IC50 [2]: 0.225 µM | ΔpIC50 ([3]; All organoids, NTRC 0066-0 vs reversine): 1.17 | pIC50 ([3]; All organoids, geometric average): 7.59 | ΔpIC50 ([3]; organoid p14, NTRC 0066-0 vs reversine): 1.34 | pIC50 ([3]; organoid p14, three days): 7.65 | IC50 ([3]; organoid p14, three days, read-out: IC50): 0.0225 µM | pIC50 ([3]; organoid p18, three days): 7.68 | IC50 ([3]; organoid p18, three days, read-out: IC50): 0.0221 µM | ΔpIC50 ([3]; organoid p28, NTRC 0066-0 vs reversine): 1.22 | pIC50 ([3]; organoid p28, three days): 7.43 | IC50 ([3]; organoid p28, three days, read-out: IC50): 0.037 µM | times more potent than reversine ([3]; organoids): 10 times | IC50 ([3]; organoids from three different patients, read-out: average IC50): 0.027 µM | IC50 ([4]; 3 days, geometric average in 44 cell lines): 0.067 µM | IC50 ([4]; 5 days, geometric average in 66 cancer cell lines): 0.098 µM | IC50 [5]: 0.035 µM | caspase 3/7 activity [6]: induced caspase 3/7 activity | IC50 [7]: 0.034 µM | Efficacy (%) ([8]; average of three experiments): 36% | IC50 ([8]; geometric average of three experiments): 0.044 µM
